{"source": "patent US7091207B2", "about": "“Method of treating myocardial infarction with PDE-5 inhibitors” (Virginia Commonwealth University, priority 2002, dated 2006)", "key": {"[1]": {"tested_on": "iNOS", "experiment": "Cardiac iNOS mRNA (RT-PCR) and protein (Western blot) expression after treatment", "format": "in vivo, mouse", "conditions": "0.7 mg/kg IP", "procedure": "(§1) Adult male outbred ICR mice were supplied by Harlan Inc (Indianapolis, Ind.). Viagra pills (Pfizer Inc) were ground into powder and dissolved in saline. The drug solution was filtered (0.45-μm pore size) before intraperitoneal injection. 1400W, an iNOS inhibitor, was obtained from Alexis. We used an isolated perfused mouse heart model subjected to 20 minutes of global ischemia and 30 minutes of reperfusion (Langendorff mode). Myocardial I-R injury was assessed by measuring infarct size, contractile function, and coronary flow as described previously (Xi, 1999). Twenty-eight mice were randomized into the following 4 groups: (n=6 to 9 per group): (1) saline (0.15 mL IP), (2) sildenafil (0.7 mg/kg IP, equivalent to 50 mg Viagra pill used for patients with erectile dysfunction, given 24 hours before I-R), (3) sildenafil+1400W (10 mg/kg IP, 14 given 30 minutes before I-R), and (4) saline+1400W. Measurement of NOS Isoforms Mice were treated with sildenafil (0.7 mg/kg IP), and their hearts were removed at 15, 30, and 45 minutes and 1, 2, 3, 4, and 24 hours after injection (n=3 per group). Three nontreated hearts were used as controls. Tissue samples were ground under liquid nitrogen and homogenized with TRI Reagent (Molecular Research Center) for extracting total RNA, which was reverse-transcribed into cDNA at 50° C. for 30 minutes using a OneStep reverse transcription (RT)-polymerase chain reaction (PCR) kit from Qiagen. The oligonucleotide primers were synthesized on the basis of published sequences for murine iNOS, eNOS, and GAPDH15 (Integrated DNA Technology). The RT-PCR products were electrophoresed on 1.5% Trisacetate-EDTA agarose gel. The target bands were identified on the basis of their specific size using DNA standards. iNOS and eNOS proteins were measured by Western blots as described previously. […] The mRNA and protein expression were quantified by scanning each of the RT-PCR or Western blot band using a densitometer (Bioquant 98). […]"}, "[2]": {"tested_on": "eNOS", "experiment": "Cardiac eNOS mRNA (RT-PCR) and protein (Western blot) expression after treatment", "format": "in vivo, mouse", "conditions": "0.7 mg/kg IP", "procedure": "as §1, with “Three nontreated hearts were used as controls. Tissue samples were ground under liquid nitrogen and homogenized with TRI Reagent (Molecular Research Center) for extracting total RNA, which was reverse-transcribed into cDNA at 50° C. for 30 minutes using a OneStep reverse transcription (RT)-polymerase chain reaction (PCR) kit from Qiagen. The oligonucleotide primers were synthesized on the basis of published sequences for murine iNOS, eNOS, and GAPDH15 (Integrated DNA Technology). The RT-PCR products were electrophoresed on 1.5% Trisacetate-EDTA agarose gel.” left out"}}}
{"smiles": "CCCc1nn(C)c2c(=O)[nH]c(-c3cc(S(=O)(=O)N4CCN(C)CC4)ccc3OCC)nc12", "note": "[sildenafil]", "values": [{"measurement": "iNOS mRNA and protein expression", "setting": "[1]", "value": "increase"}, {"measurement": "magnitude of increase, iNOS compared with eNOS", "setting": "[1]", "value": "much higher for iNOS"}, {"measurement": "time of peak iNOS mRNA level", "setting": "[1]", "value": 2, "unit": "h"}, {"measurement": "eNOS mRNA and protein expression", "setting": "[2]", "value": "increase"}, {"measurement": "time of peak eNOS mRNA level", "setting": "[2]", "value": 45, "unit": "min"}]}
